According to paper PMC8325119, “A Novel Class of Functionalized Synthetic Fluoroquinolones with Dual Antiproliferative - Antimicrobial Capacities” (Asian Pacific Journal of Cancer Prevention : APJCP, 2021):
Values joined by “and” are separate entries in the source; they are usually repeats but may differ in a detail not shown here. Equal values may be shown once. Read-outs that look alike come from different tables or passages of the source.

Assays:
T47D cell line = assay: cells; conditions: Homo sapiens, T47D, 72 h, read-out: Cytotoxicity IC50 value, T47D cell line
Procedure: (§1) All reagents and chemicals of analytical grade were obtained from Sigma (Dorset, UK); unless stated otherwise. All chemicals, reagents and solvents (of analytical grade) were used directly without further purification. MCF7 cell line ATCC® HTB-22™, T47D cell line ATCC® HTB-133™, K562 cell line ATCC® CCL-243™, Panc1 cell line ATCC® CRL-1469™. A375.S2 cell line ATCC® CRL-1872™, A549 cell line ATCC® CCL-185™, HELA cell line ATCC® CCL-2™ were cultured in Dulbecco’s modified eagle’s medium (DMEM). (DMEM) containing foetal bovine serum (FBS) (Bio Whittaker, Verviers, Belgium), 4-(2-hydroxyethyl)-1-piperazine ethane sulfonic acid (HEPES) Buffer, L-glutamine, gentamicin, penicillin, and streptomycin sulphate (Sigma, St. Luis, MO, USA), trypsin, trypan blue, Ciprofloxacin HCl from Aarti drugs Ltd/India, was a kind gift from Pharma International Company- Amman; Fluconazole from Neopharma, United Arab Emirates, a kind gift from Pharmaceutical Research Unit, Amman; Trypon soya agar (TSA), trypon soya broth (TSB), sabouraud dextrose agar (SDA) were obtained from Liofilchem (Italy) or Oxoid LTD (Basingstoke, England), they were reconstituted and sterilized by autoclave at 121 °C for 15 min.
(§2) The cytotoxicity measurements were determined using Sulforhodamine B (SRB) colorimetric assay for cytotoxicity screening. The mechanism of reduction of cell viability was adopted as described previously (Arabiyat et al., 2016a,b; 2017; Alabsi et al., 2018; Jumah, 2018; AlShahrabi et al., 2020). Human periodontal ligament fibroblasts (PDL) are a primary normal cell culture for verification of selective cytotoxicity. […] Selectivity ratio as indicative factor of the safety of compounds was calculated by dividing IC50 of tested compound on normal fibroblasts by IC50 of the same compound on specific pathological cell line (Hoffman et al., 2011).

PDL Fibroblasts = assay: SRB cytotoxicity on normal periodontal ligament fibroblasts, selective cytotoxicity; type: cell-based, Human; conditions: for IC50: Homo sapiens, Fibroblast, normal fibroblasts, SRB, 72 h, mean ± SD; for Selectivity index SI (A562): IC50 on PDL fibroblasts divided by IC50 on the cell line printed as A562; for Selectivity index SI (K562): IC50 on PDL fibroblasts divided by IC50 on K562; for Selectivity index SI (HELA): IC50 on PDL fibroblasts divided by IC50 on HELA
Procedure: as §2

PANC 1 cell line = assay: SRB cytotoxicity assay, PANC 1 pancreatic cancer cell line; conditions: Homo sapiens, PANC-1, 72 h, read-out: Cytotoxicity IC50 value, PANC 1 cell line
Procedure: as §1, §2

MCF7 cell line = assay: SRB cytotoxicity assay, MCF7 breast cancer cell line; conditions: Homo sapiens, MCF7, 72 h, read-out: Cytotoxicity IC50 value, MCF7 cell line
Procedure: as §1, §2

HELA cell line = assay: SRB cytotoxicity assay, HELA cervical cancer cell line; conditions: Homo sapiens, HeLa, 72 h
Procedure: as §1, §2

A549 cell line = assay: SRB cytotoxicity assay, A549 lung cancer cell line; conditions: Homo sapiens, A549, 72 h, read-out: Cytotoxicity IC50 value, A549 cell line
Procedure: as §1, §2

A375.S2 cell line = assay: SRB cytotoxicity assay, A375.S2 melanoma cell line; conditions: Homo sapiens, A375-S2, 72 h, read-out: Cytotoxicity IC50 value, A375.S2 cell line
Procedure: as §1, §2

K562 cell line = assay: SRB cytotoxicity assay, K562 leukaemia cell line; conditions: Homo sapiens, K562, 72 h
Procedure: as §1, §2

[1] = 0.1-200 μg/mL range, NI = lack of cytotoxicity in range
[2] = read-out: Cytotoxicity IC50 value, HELA cell line, SRB, 72 h, 0.1-200 μg/mL range, mean ± SD, value in brackets
[3] = read-out: Cytotoxicity IC50 value, HELA cell line, SRB, 72 h, 0.1-200 μg/mL range, mean ± SD, NI = lack of cytotoxicity in range
[4] = read-out: Cytotoxicity IC50 value, K562 cell line, SRB, 72 h, 0.1-200 μg/mL range, mean ± SD, value in brackets
[5] = read-out: Cytotoxicity IC50 value, K562 cell line, SRB, 72 h, 0.1-200 μg/mL range, mean ± SD, NI = lack of cytotoxicity in range

SMILES | IC50 (T47D cell line) | IC50 (PDL Fibroblasts; [1]) | IC50 (PDL Fibroblasts; value in brackets) | Selectivity index SI (A562) (PDL Fibroblasts) | IC50 (PANC 1 cell line) | IC50 (MCF7 cell line) | IC50 (HELA cell line; [2]) | IC50 (HELA cell line; [3]) | IC50 (A549 cell line) | IC50 (A375.S2 cell line) | IC50 (K562 cell line; [4]) | IC50 (K562 cell line; [5]) | Selectivity index SI (PANC 1) (PDL Fibroblasts; IC50 on PDL fibroblasts divided by IC50 on PANC 1) | Selectivity index SI (K562) (PDL Fibroblasts) | Selectivity index SI (HELA) (PDL Fibroblasts) | Selectivity index SI (A375.S2) (PDL Fibroblasts; IC50 on PDL fibroblasts divided by IC50 on A375.S2)
COc1ccc(Nc2c(F)cc3c(=O)c(C(=O)O)cn(C4CC4)c3c2N)cc1 [4c, 8-amino-1-cyclopropyl-6-fluoro-7-(4-methoxy-phenylamino)-4-oxo-1,4-dihydro-quinoline-3-carboxylic acid] | 77.2 µM and 29.6 µg/mL | 138 ± 8.26 µM | 53 µg/mL | 27.07 | 72.1 µM and 27.6 µg/mL | 57.4 µM and 22 µg/mL | 97.8 µg/mL | 255 ± 2.15 µM | 5.11 µM and 1.96 µg/mL | 248 µM and 95 µg/mL | 20 µg/mL | 52.1 ± 6.9 µM | – | – | – | –
CCc1ccc(Nc2c(F)cc3c(=O)c(C(=O)O)cn(C4CC4)c3c2N)cc1 [4d, 8-Amino-1-cyclopropyl-6-fluoro-7-(4-ethyl-phenylamino)-4-oxo-1,4-dihydro-quinoline-3-carboxylic acid] | 53.7 µM and 20.5 µg/mL | 50.4 ± 4.28 µM | 19.2 µg/mL | 2.49 | 65.3 µM and 24.9 µg/mL | 21.3 µM and 8.14 µg/mL | 51.7 µg/mL | 136 ± 4.58 µM | 20.2 µM and 7.72 µg/mL | 47 µM and 17.9 µg/mL | 15.9 µg/mL | 41.8 ± 4.98 µM | – | – | – | –
CCCCCCc1ccc(Nc2c(F)cc3c(=O)c(C(=O)O)cn(C4CC4)c3c2N)cc1 [4f, 8-Amino-1-cyclopropyl-6-fluoro-7-(4-hexyl-phenylamino)-4-oxo-1,4-dihydro-quinoline-3-carboxylic acid] | 308 µM and 135 µg/mL | 352 ± 7.36 µM | 154 µg/mL | – | 110 nM and 0.05 µg/mL | 300 nM and 0.13 µg/mL | 13.4 µg/mL | 30.7 ± 3.79 µM | 204 µM and 89.5 µg/mL | 244 µM and 107 µg/mL | 30.4 µg/mL | 69.4 ± 6.64 µM | 3199.45 | – | – | –
COc1cccc(-n2nnc3c4c(cc(F)c32)c(=O)c(C(=O)O)cn4C2CC2)c1 [5b, 9-cyclopropyl-4-fluoro-3-(3-methoxy-phenyl)-6-oxo-6,9-dihydro-3H-[1,2, and 3] triazolo [4,5-h] quinoline-7-carboxylic acid] | 18 µM and 7.08 µg/mL | 143 ± 10.8 µM | 56.4 µg/mL | – | 178 µM and 70.2 µg/mL | 112 µM and 44.2 µg/mL | 26.3 µg/mL | 66.9 ± 2.73 µM | 196 µM and 77.2 µg/mL | 364 µM and 143 µg/mL | 4.56 µg/mL | 11.6 ± 0.61 µM | – | 12.35 | – | –
COc1ccc(-n2nnc3c4c(cc(F)c32)c(=O)c(C(=O)O)cn4C2CC2)cc1 [5c, 9-cyclopropyl-4-fluoro-3-(4-methoxy-phenyl)-6-oxo-6,9-dihydro-3H-[1,2, and 3] triazolo [4,5-h] quinoline-7-carboxylic acid] | 398 µM and 156 µg/mL | 496 ± 52.5 µM | 195 µg/mL | – | > 200 µg/mL | > 200 µg/mL | 179 µg/mL | 454 ± 19.1 µM | 427 µM and 168 µg/mL | 453 µM and 178 µg/mL | 97.4 µg/mL | 248 ± 44.6 µM | – | 2.00 | – | –
CCCCCCc1ccc(-n2nnc3c4c(cc(F)c32)c(=O)c(C(=O)O)cn4C2CC2)cc1 [5f, 9-cyclopropyl-4-fluoro-3-(4-hexyl-phenyl)-6-oxo-6,9-dihydro-3H-[1,2,3] triazolo[4,5-h]quinoline-7-carboxylic acid] | 232 µM and 104 µg/mL | 474 ± 33.5 µM | 212 µg/mL | – | 119 µM and 53.4 µg/mL | 181 µM and 81.1 µg/mL | 1.61 µg/mL | 3.59 ± 0.05 µM | 362 µM and 162 µg/mL | 508 µM and 227 µg/mL | 14.1 µg/mL | 31.5 ± 2.92 µM | – | – | 132.15 | –
COc1ccc(-n2nnc3c4c(cc(F)c32)c(=O)c(C(=O)O)cn4C2CC2)c(OC)c1 [5g, 9-cyclopropyl-3-(2,4-dimethoxy-phenyl)-4-fluoro-6-oxo-6,9-dihydro-3H-[1,2,3] triazolo[4,5-h]quinoline-7-carboxylic acid] | 237 µM and 102 µg/mL | 237 ± 13.5 µM | 102 µg/mL | – | > 200 µg/mL | 143 µM and 61.9 µg/mL | 71.8 µg/mL | 166 ± 26 µM | 474 µM and 205 µg/mL | 272 µM and 118 µg/mL | 24.2 µg/mL | 56 ± 8.04 µM | – | 4.23 | – | –
O=C(O)c1cn(C2CC2)c2c([N+](=O)[O-])c(NC3CCCCC3)c(F)cc2c1=O [7a, 7-cyclohexylamino-1-cyclopropyl-6-fluoro-8-nitro-4-oxo-1,4-dihydro-quinoline-3-carboxylic acid] | 51.2 µM and 19.9 µg/mL | 29.9 ± 3.56 µM | 11.6 µg/mL | – | 13.2 µM and 5.15 µg/mL | > 200 µg/mL | 0.16 µg/mL | 0.4 ± 0.05 µM | 240 µM and 93.6 µg/mL | 246 µM and 102 µg/mL | 11 µg/mL | 28.2 ± 2.04 µM | – | – | 74.66 | –
Nc1c(NC2CCCCC2)c(F)cc2c(=O)c(C(=O)O)cn(C3CC3)c12 [8a, 8-amino-7-cyclohexylamino-1-cyclopropyl-6-fluoro-4-oxo-1,4-dihydro-quinoline-3-carboxylic acid] | 148 µM and 53.2 µg/mL | 49.4 ± 2.71 µM | 17.8 µg/mL | – | 137 µM and 49.1 µg/mL | > 200 µg/mL | 45 µg/mL | 125 ± 21.9 µM | 44 µM and 15.8 µg/mL | 3.69 µM and 1.33 µg/mL | 24.4 µg/mL | 67.9 ± 6.76 µM | – | – | – | 12.48
O=C(O)c1cn(C2CC2)c2c(cc(F)c3c2nnn3C2CCCCC2)c1=O [9a, 3-cyclohexyl-9-cyclopropyl-4-fluoro-6-oxo-6,9-dihydro-3H-[1,2, and 3] triazolo [4,5-h] quinoline-7-carboxylic acid] | 299 µM and 110 µg/mL | 252 ± 11.6 µM | 93.1 µg/mL | – | 162 µM and 60 µg/mL | 133 µM and 49.2 µg/mL | 27.6 µg/mL | 74.8 ± 1.67 µM | 223 µM and 82.3 µg/mL | 215 µM and 79.6 µg/mL | – | > 200 µg/mL | – | – | 3.36 | –
CCn1cc(C(=O)O)c(=O)c2cc(F)c(Nc3ccccc3OC)c([N+](=O)[O-])c21 [11a, 1-ethyl-6-fluoro-7-(2-methoxy-phenylamino)-8-nitro-4-oxo-1,4-dihydro-quinoline-3 carboxylic acid] | 22.8 µM and 9.16 µg/mL | 156 ± 11.7 µM | 62.7 µg/mL | – | 187 µM and 75.2 µg/mL | 67.8 µM and 27.2 µg/mL | 41.4 µg/mL | 103 ± 7.66 µM | 96.8 µM and 8.84 µg/mL | 1.02 mM and 411 µg/mL | 6.38 µg/mL | 15.9 ± 1.75 µM | – | 9.83 | – | –
